# Reference: patent US7009050B2, “5-Substituted pyrimidine derivatives of conformationally locked nucleoside analogues” (The United States of America as represented by the …, priority 2000, dated 2006)
# Read-outs that look alike come from different tables or passages of the source.
# Experiments:
# HSV-1 [1] = test: cytopathogenic effect (CPE) inhibition assay, HSV-1 in HFF; settings: for HSV-1 (HFF) CPE inhib. EC50: HFF cells, CPE inhibition
# HSV-1 [2] = test: virus plaque reduction assay, HSV-1 in HFF
# HSV-2 [3] = test: virus plaque reduction assay, HSV-2 in HFF
# TK + VZV YS strain = test: VZV plaque reduction, TK+ VZV YS strain; assay type: cell-based, Varicella zoster virus; settings: read-out: Antiviral activity (Plaque reduction) EC50, TK + VZV YS strain
# TK + VZV OKA strain = test: VZV plaque reduction, TK+ VZV OKA strain; assay type: cell-based, Varicella zoster virus; settings: read-out: Antiviral activity (Plaque reduction) EC50, TK + VZV OKA strain
# Description: (§1) The virus plaque reduction assay proceeds generally as follows. […] The drug concentrations utilized are usually 200 down to 0.06 μg/mL. The virus to be used is diluted in MEM containing 10% FBS to a desired concentration which will give 20–30 plaques/well. The media are then aspirated from the wells, and 0.2 mL of virus is added to each well in duplicate with 0.2 mL of media being added to drug toxicity wells. The plates are then incubated for 1 hr with shaking every 15 min. After the incubation period, an equal amount of 1% agarose is added to an equal volume of each drug dilution. […] The drug agarose mixture is applied to each well in 2 mL volume, and the plates are incubated for 3 days, after which the cells are stained with a […] of neutral red. At the end of the 4–6 h incubation period, the stain is aspirated, and plaques are counted using a stereomicroscope at 10× magnification.
# TK − VZV 07/1 strain = test: VZV plaque reduction, TK- VZV 07/1 strain; assay type: cell-based, Varicella zoster virus; settings: read-out: Antiviral activity (Plaque reduction) EC50, TK − VZV 07/1 strain
# Description: as §1
# TK − VZV YS/R strain = test: VZV plaque reduction, TK- VZV YS/R strain; assay type: cell-based, Varicella zoster virus; settings: read-out: Antiviral activity (Plaque reduction) EC50, TK − VZV YS/R strain
# Description: as §1
# [4] = cytotoxicity (cell morphology MCC, cell growth CC50), Table 3; settings: for Cytotoxicity, Cell Morphology (MCC): minimum cytotoxic concentration causing microscopically detectable alteration of cell morphology; for CC50: read-out: Cytotoxicity CC50, cell growth
# [5] = tested on: human foreskin fibroblast (HFF) cells
# HSV-2 [6] = test: cytopathogenic effect (CPE) inhibition assay, HSV-2 in HFF; settings: HFF cells
# herpes viruses = test: antiherpes activity of methanocarbathymine conformers (test not specified); assay type: cell-based
# Vaccinia [7] = settings: HFF cells; CPE inhibition
# Vaccinia [8] = settings: HFF cells; plaque reduction
# Cowpox [9] = settings: HFF cells; CPE inhibition
# Cowpox [10] = settings: HFF cells; plaque reduction
# [11] = plaque reduction assay, more potent than acyclovir
compound,measurement,setting,value
"Nc1nc2c(ncn2COCCO)c(=O)[nH]1 [ACV, acyclovir, reference compound]",EC50,"HSV-1 [1]; Human alphaherpesvirus 1, HFF, read-out: HSV-1 (HFF) CPE inhib. EC50",0.5 µg/mL
"Cc1cn([C@H]2C[C@H](O)[C@]3(CO)C[C@H]23)c(=O)[nH]c1=O [(North)-methanocarbathymine, reference compound]",potency relative to acyclovir against HSV-1,HSV-1 [2]; [11],30 times
same,potency relative to acyclovir against HSV-2,HSV-2 [3]; [11],30 times
"O=c1[nH]c(=O)n([C@H]2C[C@H](O)[C@@H](CO)O2)cc1/C=C/Br [BVDU, reference compound]",EC50,TK + VZV YS strain,8 nM
same,EC50,TK + VZV OKA strain,5 nM
same,EC50,TK − VZV 07/1 strain,> 150000 nM
same,EC50,TK − VZV YS/R strain,> 150000 nM
same,"Cytotoxicity, Cell Morphology (MCC)",[4],>150 μM
same,CC50,[4],> 400000 nM
O=c1[nH]c(=O)n([C@H]2C[C@H](O)[C@]3(CO)C[C@H]23)cc1I [(N)-MCdIU (4)],EC50,TK + VZV OKA strain,160 nM
same,EC50,TK − VZV 07/1 strain,> 5000 nM
same,EC50,TK − VZV YS/R strain,3000 nM
same,HSV-1 (HFF) CPE inhib. CC50,"[5]; HFF cells, column of HSV-1 CPE inhibition",>100 µg/mL
same,HSV-2 (HFF) CPE inhib. CC50,"[5]; HFF cells, column of HSV-2 CPE inhibition",>100 µg/mL
same,HSV-1 (HFF) CPE inhib. EC50,HSV-1 [1],>100 µg/mL
same,HSV-2 (HFF) CPE inhib. EC50,HSV-2 [6],3.3 µg/mL
same,"SI (CC50/EC50), HSV-2 CPE inhib.",HSV-2 [6],30.3
same,"Cytotoxicity, Cell Morphology (MCC)",[4],>5 μM
same,CC50,[4],> 200000 nM
Cc1cn([C@@]23C[C@H](O)[C@@H](CO)[C@@H]2C3)c(=O)[nH]c1=O,antiherpes activity (in words),herpes viruses,inactive
O=c1[nH]c(=O)n([C@H]2C[C@H](O)[C@]3(CO)C[C@H]23)cc1/C=C/Br [(N)-MCBVDU (5)],EC50,TK + VZV YS strain,7 nM
same,EC50,TK + VZV OKA strain,5 nM
same,EC50,TK − VZV 07/1 strain,> 5000 nM
same,EC50,TK − VZV YS/R strain,> 5000 nM
same,HSV-1 (HFF) CPE inhib. CC50,[5],>100 µg/mL
same,HSV-2 (HFF) CPE inhib. CC50,[5],>100 µg/mL
same,HSV-1 (HFF) CPE inhib. EC50,HSV-1 [1],2.2 µg/mL
same,HSV-2 (HFF) CPE inhib. EC50,HSV-2 [6],>100 µg/mL
same,"SI (CC50/EC50), HSV-2 CPE inhib.",HSV-2 [6],0
O=c1[nH]c(=O)n(C2CC(O)C3(CO)CC23)cc1Br (centres unmarked) [(N)-MCdBrU (3)],EC50,TK + VZV YS strain,30 nM
same,EC50,TK + VZV OKA strain,890 nM
same,EC50,TK − VZV 07/1 strain,107000 nM
same,EC50,TK − VZV YS/R strain,37000 nM
same,"SI (CC50/EC50), Vaccinia CPE inhib.",Vaccinia [7],>156
same,Vaccinia (HFF) CPE inhib. EC50,Vaccinia [7],0.64 µg/mL
same,"SI (CC50/EC50), Vaccinia Plaque red'n",Vaccinia [8],38.5
same,Vaccinia (HFF) Plaque red'n EC50,Vaccinia [8],2.6 µg/mL
same,Cowpox (HFF) CPE inhib. EC50,Cowpox [9],11.5 µg/mL
same,"SI (CC50/EC50), Cowpox CPE inhib.",Cowpox [9],8.7
same,Cowpox (HFF) Plaque red'n EC50,Cowpox [10],3.4 µg/mL
same,"SI (CC50/EC50), Cowpox Plaque red'n",Cowpox [10],29.4
same,HSV-1 (HFF) CPE inhib. CC50,[5],>100 µg/mL
same,HSV-1 (HFF) plaque red'n CC50,[5],>100 µg/mL
same,HSV-2 (HFF) CPE inhib. CC50,[5],>100 µg/mL
same,HSV-2 (HFF) plaque red'n CC50,[5],>100 µg/mL
same,Cowpox (HFF) CPE inhib. CC50,"[5]; HFF cells, column of Cowpox CPE inhibition",>100 µg/mL
same,Cowpox (HFF) Plaque red'n CC50,"[5]; HFF cells, column of Cowpox plaque reduction",>100 µg/mL
same,Vaccinia (HFF) CPE inhib. CC50,"[5]; HFF cells, column of Vaccinia CPE inhibition",>100 µg/mL
same,Vaccinia (HFF) Plaque red'n CC50,"[5]; HFF cells, column of Vaccinia plaque reduction",>100 µg/mL
same,HSV-1 (HFF) plaque red'n EC50,"HSV-1 [2]; HFF cells, plaque reduction",0.03 µg/mL
same,"SI (CC50/EC50), HSV-1 plaque red'n","HSV-1 [2]; HFF cells, plaque reduction",3333
same,HSV-2 (HFF) plaque red'n EC50,"HSV-2 [3]; HFF cells, plaque reduction",0.12 µg/mL
same,"SI (CC50/EC50), HSV-2 plaque red'n","HSV-2 [3]; HFF cells, plaque reduction",833
same,HSV-1 (HFF) CPE inhib. EC50,HSV-1 [1],0.39 µg/mL
same,HSV-2 (HFF) CPE inhib. EC50,HSV-2 [6],0.70 µg/mL
same,"SI (CC50/EC50), HSV-2 CPE inhib.",HSV-2 [6],>142
